Laboratory results: PubChem BioAssay (NCI)
Values joined by “and” are separate entries in the source; they are usually repeats but may differ in a detail not shown here. Equal values may be shown once.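 These data come from cells grown in 96-well plates and exposed to compound for 48 hours at five concentrations. Abbreviation: GI50, concentration required for 50% inhibition of growth. Definition used: TGI = concentration required for complete inhibition of growth.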

Experiments:
Experiment in all cases: NCI-60 cell line screen, 48 h
HT29 colon = system: HT29 colon
IGROV1 ovarian = system: IGROV1 ovarian
K-562 leukemia = system: K-562 leukemia
M14 melanoma = system: M14 melanoma
MALME-3M melanoma = system: MALME-3M melanoma
MDA-MB-231 breast = system: MDA-MB-231 breast
SN12C renal = system: SN12C renal
SNB-19 CNS = system: SNB-19 CNS
SW-620 colon = system: SW-620 colon
U251 CNS = system: U251 CNS

| Compound | GI50 (HT29 colon) | TGI (HT29 colon) | GI50 (IGROV1 ovarian) | TGI (IGROV1 ovarian) | GI50 (K-562 leukemia) | TGI (K-562 leukemia) | GI50 (M14 melanoma) | TGI (M14 melanoma) | GI50 (MALME-3M melanoma) | TGI (MALME-3M melanoma) | GI50 (MDA-MB-231 breast) | TGI (MDA-MB-231 breast) | GI50 (SN12C renal) | TGI (SN12C renal) | GI50 (SNB-19 CNS) | TGI (SNB-19 CNS) | GI50 (SW-620 colon) | TGI (SW-620 colon) | GI50 (U251 CNS) | TGI (U251 CNS) |
| --- | --- | --- | --- | --- | --- | --- | --- | --- | --- | --- | --- | --- | --- | --- | --- | --- | --- | --- | --- | --- |
| COC(=O)[C@H](Cc1cn(C)cn1)NC(=O)[C@H](Cc1ccccc1)NC(=O)Nc1cc(C(F)(F)F)cc(C(F)(F)F)c1 | 4.97 µM and 14.9 µM | 29.8 µM | 18.5 µM | 37.2 µM | 7.69 µM and 5.97 µM | 20.5 µM | 13.5 µM | 28.5 µM | 18.2 µM | 34.2 µM | 5.03 µM and 7.85 µM | 21.2 µM | 11.7 µM | 24.6 µM | 14.2 µM | 28.3 µM | 14.5 µM | 30.6 µM | 11.9 µM | 24.6 µM |
| O=C(/C=C/C12c3ccccc3C(c3ccccc31)C1C(=O)NC(=O)C12)c1ccccc1 (stereo not given) | 3.25 µM | 11.9 µM | 2.03 µM | 4.52 µM | 1.94 µM | > 100 µM | 1.78 µM | 3.68 µM | 1.64 µM | 3.15 µM | 2.96 µM | 13.1 µM | 2.29 µM | 6.91 µM | 1.66 µM | 3.34 µM | 1.92 µM | 4.93 µM | 1.55 µM | 2.96 µM |
| CNC(=O)c1ccccc1Nc1nc(Nc2ccc3c(c2OC)CCC[C@H](N2CCN(CCO)CC2)C3)ncc1Cl | 0.329 µM and 0.256 µM | 10.5 µM and 1.27 µM | 1.02 µM and 0.801 µM | 5.75 µM and 4.96 µM | 2.25 µM and 2.51 µM | 5.94 µM and 8.55 µM | 1.02 µM and 0.51 µM | 3.44 µM and 2.78 µM | 0.875 µM and 1.63 µM | 3.09 µM and > 10 µM | 1.34 µM and 1.62 µM | 3.26 µM and 7.04 µM | 2.57 µM and 2.59 µM | 13.3 µM and > 10 µM | 2.85 µM and 6.49 µM | 14.6 µM and > 10 µM | 0.863 µM and 0.669 µM | 11.3 µM and > 10 µM | 2.43 µM and 2.27 µM | 13.3 µM and > 10 µM |
| O=c1/c(=N\Nc2ccccc2)c2cccc3ccc4cccc1c4c32 | – | > 100 µM | – | > 100 µM | – | > 100 µM | – | > 100 µM | – | > 100 µM | – | > 100 µM | – | > 100 µM | – | > 100 µM | – | > 100 µM | – | > 100 µM |
| Cc1cc(O)c(-c2ccc([C@@H](C)CN(C)C)cc2)c2c1[nH]c(=O)c1sccc12 | 2.76 µM | 7.81 µM | 0.534 µM | 5.16 µM | 0.482 µM | > 60.5 µM | 0.705 µM | 4.34 µM | 1.53 µM | 4.59 µM | 0.608 µM | 28.6 µM | 0.627 µM | 20.7 µM | 0.724 µM | 23.3 µM | 0.556 µM | > 61.9 µM | 0.399 µM | 17.4 µM |
| C=C1CCC2C3(C)COC(c4ccccc4Cl)OC3CCC2(C)C1/C=C/C1=CCOC1=O (stereo not given) | 5.43 µM | > 100 µM | > 100 µM | > 100 µM | 3.61 µM | > 100 µM | 89.6 µM | > 100 µM | 17.2 µM | > 100 µM | > 100 µM | > 100 µM | > 100 µM | > 100 µM | > 100 µM | > 100 µM | 25 µM | > 100 µM | 24 µM | > 100 µM |
| CS(=O)(=O)N(c1cc(-c2ccc3ncnc(Nc4ccc(F)c(Cl)c4)c3c2)cnc1Cl)S(C)(=O)=O | 1.07 µM | 13.9 µM | 0.196 µM | 0.786 µM | 2.45 µM | > 100 µM | 1.17 µM | 11.9 µM | 0.267 µM | 2.12 µM | 1.75 µM | 9.65 µM | 0.964 µM | > 32.6 µM | 0.897 µM | 9.9 µM | 1.71 µM | > 38.4 µM | 1.15 µM | 13.4 µM |
| CN(N)c1nc(N)c(C#N)c(C#N)c1C#N | – | > 10 µM | – | > 10 µM | – | > 10 µM | – | > 10 µM | – | > 10 µM | – | > 10 µM | – | > 10 µM | – | > 10 µM | – | > 10 µM | – | > 10 µM |
| C/C=C(\C)C(=O)OC1/C=C(\C)CC/C=C(\C)CC2OC(=O)C(C)(OC(C)=O)C12 (stereo not given) | – | > 100 µM | – | > 100 µM | – | > 100 µM | – | > 100 µM | – | > 100 µM | – | > 100 µM | – | > 100 µM | – | > 100 µM | – | > 100 µM | – | > 100 µM |
| Nc1cccc2c1C(=O)c1cccc(NC(=O)c3ccccc3)c1C2=O | 0.291 µM | 2.67 µM | 0.503 µM | > 81.4 µM | 0.133 µM | > 100 µM | 0.4 µM | 36.4 µM | 0.242 µM | 7.09 µM | 1.06 µM | > 100 µM | 0.723 µM | > 80.6 µM | 0.591 µM | > 100 µM | 0.267 µM | > 100 µM | 0.54 µM | 13.8 µM |
| N#Cc1cc(S(=O)(=O)Nc2nc3ccccc3o2)c(SCc2ccccc2)cc1Cl | 29.1 µM | 83.6 µM | 22 µM | 54.8 µM | 38.8 µM | > 100 µM | 25.4 µM | 52.7 µM | 34.5 µM | 69.9 µM | 24.8 µM | 62.9 µM | 24.7 µM | 57.9 µM | 20.9 µM | 56.1 µM | 17.9 µM | 35.5 µM | 18.9 µM | 34 µM |
